According to patent US20110312961A1, “2,5-Disubstituted Morpholine Orexin REceptor Antagonists” (priority 2008, published 2011):

How the values were obtained:
[1] = target: T1, human recombinant α4β2 nicotinic receptors (Homo sapiens, UniProt P17787+P43681); test: [3H]-nicotine radioligand binding, SH-EP1/human α4β2 membranes; settings: read-out: inhibition of [3H]-nicotine binding to human recombinant α4β2 nicotinic receptors
T1 construct: expressed in transfected cells; host or cells: SH-EP1 clonal cells
Description: Preparation of membranes from SH-EP1/human α4β2 clonal cells: Cell pellets from 40 150 mm culture dishes were pooled, and homogenized by Polytron (Kinematica GmbH, Switzerland) in 20 milliliters of ice-cold preparative buffer. The homogenate was centrifuged at 48,000 g for 20 minutes at 4° C. The resulting pellet was re-suspended in 20 mL of ice-cold preparative buffer and stored at −20° C.
On the day of the assay, the frozen membranes were thawed and spun at 48,000×g for 20 min. The supernatant was decanted and discarded. The pellet was resuspended in Dulbecco's phosphate buffered saline (PBS, Life Technologies) pH 7.4 and homogenized with the Polytron for 6 seconds. Protein concentrations were determined using a Pierce BCA Protein Assay Kit, with bovine serum albumin as the standard (Pierce Chemical Company, Rockford, Ill.).
Membrane preparations (approximately 50 μg for human and 200-300 μg protein for rat α4β2) were incubated in PBS (50 μL and 100 μL respectively) in the presence of competitor compound (0.01 nM to 100 μM) and 5 nM [^3H]nicotine for 2-3 hours on ice. […] Filters were then counted to determine radioactivity bound to the membranes by liquid scintillation counting (2200CA Tri-Carb LSC, Packard Instruments, 50% efficiency or Wallac Trilux 1450 MicroBeta, 40% efficiency, Perkin Elmer).
Data were expressed as disintegrations per minute (DPMs). […]

[2] = target: T2, human native muscle-type nicotinic receptors (likely α1β1γδ) (Homo sapiens, UniProt P02708+P07510+Q07001); test: [3H]epibatidine binding, TE-671 membranes
T2 construct: human native muscle-type nicotinic receptors (likely α1β1γδ); endogenous in cells; host or cells: TE-671

normal rats = test: Novel object recognition (NOR) task; assay type: in vivo, rat; settings: for Minimum Effective Dose (MED): oral, rats (FIG. 2)
Description: Memory was assessed by using the three-trial novel object recognition test. On the first day (exploratory trial), rats were allowed to explore an open arena (44.5×44.5×30.5 cm) for 6 min. On the second day (acquisition trial), rats were allowed to explore the same arena in the presence of two identical objects (both object A) for 3 minutes. On the third day (retention or recall trial), performance was evaluated by allowing the same animal to re-explore the arena for 3 minutes in the presence of two different objects: the familiar object A and a novel object B. An inter-trial interval of 24 hours was imposed between the three NOR trials. Recognition memory was assessed by comparing the time spent exploring a novel (object B) versus a familiar (object A) object during the recall trial. Recognition index was assessed for each animal and expressed as a ratio ((time B/time A+time B)×100).

db/db mouse = test: Murine model of type 2 diabetes mellitus (db/db); assay type: in vivo
Excerpt: The db/db mouse, a well established model of type 2 diabetes mellitus, is a leptin-deficient mutant that expresses an obese phenotype and also commonly expresses metabolic symptoms including hyperglycemia, hyperlipidemia and hyperinsulinemia (Halaas et al., 1995 and Lee et al., 1996). This experimental animal model of diabetes was employed in a study designed to determine the effects of (2S,3R)—N-2-((3-pyridinyl)methyl)-1-azabicyclo[2.2.2]oct-3-yl)-3,5-difluorobenzamide on body mass and several additional metabolic parameters.
In this study, (2S,3R)—N-2-((3-pyridinyl)methyl)-1-azabicyclo[2.2.2]oct-3-yl)-3,5-difluorobenzamide was repeatedly administered orally (via gavage) at 1.0 mg/kg once daily starting from the age of approximately 3 weeks and continuing throughout the 7-week study. Nondiabetic heterozygote littermate mice (db/+; designated “Db”) were used as controls. Body weight and food intake were determined twice weekly. The α7 antagonist methyllycaconitine (MLA) was also given concurrently via gavage at 3 mg/kg daily to selected cohorts of db/db (designated “db”) or db/+mice. At the end of the 7-week dosing regimen, total growth rates (overall body weight gain) and average daily food intake were calculated. In addition, glucose levels were assessed in mice fasted overnight. Furthermore, blood sample analytes from mice fasted overnight were collected for measurements of tumor necrosis factor-a (TNF-α), triglycerides and glycosylated hemoglobin (HbA1c). All data are expressed as mean±SEM. For each parameter investigated, differences among all groups were compared by one-way ANOVA with post-hoc Neuman-Keuls multiple comparison test.

[3] = tested on: ovalbumin-sensitized mice; test: Airway hyperresponsiveness (Penh) and BALF cell counts; assay type: in vivo, mouse; settings: for methacholine-induced increase in Penh values: FIG. 21
Description: Using the method of Hamelmann et al, (2S,3R)—N-2-((3-pyridinyl)methyl)-1-azabicyclo[2.2.2]oct-3-yl)-3,5-difluorobenzamide was evaluated for possible inhibition of airway hyper-responsiveness in mice. Briefly, ovalbumin (OVA)-sensitized animals, 12 animals per group, were challenged by nasal inhalation with aerosolized 5% OVA for 25 min on days 21, 23, and 25. The mice were treated with vehicle or (2S,3R)—N-2-((3-pyridinyl)methyl)-1-azabicyclo[2.2.2]oct-3-yl)-3,5-difluorobenzamide subcutaneously (s.c.) twice daily from day 21 to day 26 or once daily intratracheally (i.t.), preceding ovalbumin aerosol challenge by 30 min on days 21, 23 and 25 as well as methacholine challenge or bronchoalveolar lavage fluids (BALF) harvest on day 26. Dexamethasone, the reference standard, was administered at 3 mg/kg orally (p.o.) once daily 60 min before OVA challenge on day 21, 23 and 25 and 60 min before methacholine provocation or BALF harvest on day 26. Noninvasive measurements of airway responsiveness were performed by using whole body plethysmography, in which increases in enhanced pause (Penh) serve as an index of airway obstruction. Responses to inhaled methacholine were measured and calculated as percentage of respective baseline values. Unpaired Students t-test was used for comparison between the vehicle control and the sham group; one-way ANOVA and Dunnett's post-hoc analyses were applied for comparison between the vehicle control and treated groups. Statistical significance is considered at P<0.05.

T1 sequence (P43681 29-627 limits assumed): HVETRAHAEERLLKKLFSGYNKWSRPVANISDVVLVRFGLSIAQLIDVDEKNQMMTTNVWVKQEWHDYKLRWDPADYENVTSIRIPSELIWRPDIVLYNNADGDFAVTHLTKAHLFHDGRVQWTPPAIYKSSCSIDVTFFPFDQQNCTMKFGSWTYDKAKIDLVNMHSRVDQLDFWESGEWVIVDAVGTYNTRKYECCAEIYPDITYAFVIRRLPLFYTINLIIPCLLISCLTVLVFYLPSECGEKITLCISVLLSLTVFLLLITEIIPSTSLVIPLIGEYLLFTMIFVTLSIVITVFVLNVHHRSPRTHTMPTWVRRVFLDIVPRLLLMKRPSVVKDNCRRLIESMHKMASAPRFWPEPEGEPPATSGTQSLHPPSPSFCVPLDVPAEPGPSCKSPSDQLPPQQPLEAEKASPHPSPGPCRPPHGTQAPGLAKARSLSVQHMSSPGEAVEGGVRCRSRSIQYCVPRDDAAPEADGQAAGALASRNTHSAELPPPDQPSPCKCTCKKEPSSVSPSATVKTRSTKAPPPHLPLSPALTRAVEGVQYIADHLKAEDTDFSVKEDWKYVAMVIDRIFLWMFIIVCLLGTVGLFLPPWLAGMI
T1 sequence (P17787 26-502): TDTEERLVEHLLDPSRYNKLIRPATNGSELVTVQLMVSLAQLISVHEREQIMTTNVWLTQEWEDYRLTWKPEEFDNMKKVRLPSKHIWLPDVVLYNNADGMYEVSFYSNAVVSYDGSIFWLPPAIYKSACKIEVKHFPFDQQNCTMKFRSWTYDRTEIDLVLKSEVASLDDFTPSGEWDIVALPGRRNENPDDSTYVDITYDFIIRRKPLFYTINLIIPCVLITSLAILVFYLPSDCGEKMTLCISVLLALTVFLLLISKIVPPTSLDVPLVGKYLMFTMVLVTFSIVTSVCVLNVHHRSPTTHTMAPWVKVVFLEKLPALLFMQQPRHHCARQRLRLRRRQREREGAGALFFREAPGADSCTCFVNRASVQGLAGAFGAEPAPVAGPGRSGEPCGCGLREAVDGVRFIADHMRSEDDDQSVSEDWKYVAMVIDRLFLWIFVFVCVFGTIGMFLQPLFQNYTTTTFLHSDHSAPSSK
T2 sequence (P07510 23-517): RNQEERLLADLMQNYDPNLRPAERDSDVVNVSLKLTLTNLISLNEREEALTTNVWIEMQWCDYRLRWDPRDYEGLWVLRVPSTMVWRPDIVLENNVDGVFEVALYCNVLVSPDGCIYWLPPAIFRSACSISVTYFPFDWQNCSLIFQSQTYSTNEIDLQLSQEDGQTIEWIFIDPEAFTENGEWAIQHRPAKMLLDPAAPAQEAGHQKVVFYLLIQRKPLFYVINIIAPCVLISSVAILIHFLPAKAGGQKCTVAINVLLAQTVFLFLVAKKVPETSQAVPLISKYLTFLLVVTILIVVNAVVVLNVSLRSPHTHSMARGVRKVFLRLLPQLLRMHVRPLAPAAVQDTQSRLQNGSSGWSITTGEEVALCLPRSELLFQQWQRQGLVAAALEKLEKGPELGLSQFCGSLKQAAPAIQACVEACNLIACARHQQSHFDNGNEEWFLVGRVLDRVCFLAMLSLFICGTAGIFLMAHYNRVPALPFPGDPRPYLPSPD
T2 sequence (P11230 24-501, further chain): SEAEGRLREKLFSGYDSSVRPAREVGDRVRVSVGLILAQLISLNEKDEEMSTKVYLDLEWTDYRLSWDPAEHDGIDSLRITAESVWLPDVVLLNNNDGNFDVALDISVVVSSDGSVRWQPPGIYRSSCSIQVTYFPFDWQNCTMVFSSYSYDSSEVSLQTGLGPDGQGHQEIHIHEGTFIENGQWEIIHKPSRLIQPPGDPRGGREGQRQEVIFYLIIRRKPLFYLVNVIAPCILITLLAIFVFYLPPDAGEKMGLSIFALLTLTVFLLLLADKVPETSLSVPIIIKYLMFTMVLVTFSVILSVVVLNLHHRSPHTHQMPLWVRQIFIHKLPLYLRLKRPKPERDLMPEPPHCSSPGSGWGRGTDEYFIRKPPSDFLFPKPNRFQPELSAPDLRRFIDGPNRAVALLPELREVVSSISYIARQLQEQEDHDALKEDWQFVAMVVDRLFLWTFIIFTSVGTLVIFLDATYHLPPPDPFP
T2 sequence (P02708 21-457): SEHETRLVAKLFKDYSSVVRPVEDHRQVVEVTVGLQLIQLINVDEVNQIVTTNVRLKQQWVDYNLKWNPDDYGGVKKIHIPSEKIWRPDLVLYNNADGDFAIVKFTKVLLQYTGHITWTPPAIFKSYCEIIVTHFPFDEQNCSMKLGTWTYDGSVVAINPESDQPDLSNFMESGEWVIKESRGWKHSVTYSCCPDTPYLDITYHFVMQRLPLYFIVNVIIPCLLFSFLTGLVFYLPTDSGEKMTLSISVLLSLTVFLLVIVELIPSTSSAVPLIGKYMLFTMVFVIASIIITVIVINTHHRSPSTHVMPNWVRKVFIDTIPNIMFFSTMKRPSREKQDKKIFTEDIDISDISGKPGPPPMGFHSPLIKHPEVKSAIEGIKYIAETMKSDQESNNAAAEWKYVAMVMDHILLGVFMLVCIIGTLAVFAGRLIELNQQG
T2 sequence (Q07001 22-517): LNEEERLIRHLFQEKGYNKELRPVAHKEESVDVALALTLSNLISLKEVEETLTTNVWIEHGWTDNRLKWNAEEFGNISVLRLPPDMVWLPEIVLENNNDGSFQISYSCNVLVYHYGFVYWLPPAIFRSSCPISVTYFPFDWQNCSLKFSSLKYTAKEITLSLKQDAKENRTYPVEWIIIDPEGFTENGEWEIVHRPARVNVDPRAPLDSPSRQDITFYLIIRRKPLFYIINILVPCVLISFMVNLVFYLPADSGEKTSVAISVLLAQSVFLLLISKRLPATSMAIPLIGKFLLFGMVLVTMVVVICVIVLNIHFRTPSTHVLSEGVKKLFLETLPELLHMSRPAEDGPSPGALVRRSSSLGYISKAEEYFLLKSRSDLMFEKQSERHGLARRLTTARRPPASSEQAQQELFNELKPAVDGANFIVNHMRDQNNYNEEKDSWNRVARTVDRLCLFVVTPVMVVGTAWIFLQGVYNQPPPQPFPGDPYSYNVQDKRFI

With `O=C(N[C@@H]1C2CCN(CC2)[C@H]1Cc1cccnc1)c1cc(F)cc(F)c1` [Compound A] the Ki [1] was 1.47 µM, the Ki [2] was 136 µM and the “lowest dose with statistically significant effect” value (normal rats; NOR vs. dose, FIG. 1) was 0.1 mg/kg. For the same compound, the “lowest dose with statistically significant effect” value (normal rats; NOR, FIGS. 1-4) was 0.03 µM/kg, the “effects observed out to, after dosing” value (normal rats; NOR, FIGS. 1-4, dose not given in the sentence) was at most 18 h and the “lowest dose with statistically significant effect” value (normal rats; NOR, determination of minimum effective dose, FIG. 2) was 0.03 mg/kg. For the same compound, the “Minimum Effective Dose (MED)” value (normal rats; NOR, listed as (2S,3R)-N-2-((3-pyridinyl)methyl)-1-azabicyclo[2.2.2]oct-3-yl)-3,5-difluorobenza) was “MED = 0.084 μmol/kg”, the “Minimum Effective Dose (MED)” value (normal rats; NOR, listed as (2S,3R)—N-2-((3-pyridinyl)methyl)-1-azabicyclo[2.2.2]oct-3-yl)-3,5-difluorobenza) was 0.084 µmol/kg and the “effect in "recall only" session” value (normal rats; single oral administration of 0.28 μmol/kg on day 3) was “demonstrated pro-cognitive effects”. The food consumption (db/db mouse; lean (db/+) mice, 1.0 mg/kg oral daily, FIG. 16) was “unaffected”, the “total body weight gain” value (db/db mouse; obese db/db mice, 1.0 mg/kg oral daily, 7 weeks, FIG. 15) was “significantly lower” and the average food consumption (db/db mouse; obese db/db mice, 1.0 mg/kg oral daily, 7 weeks, vs obese controls, FIG. 16) was “significantly lower”. The all parameters measured (db/db mouse; obese db/db mice, 1.0 mg/kg oral once daily, 7 weeks, vs vehicle-treated obese db/db) was “significant decrease in all parameters measured”, the “fasting plasma glucose levels” value (db/db mouse; obese mice, 1.0 mg/kg oral daily, 7 weeks, FIG. 17) was “significantly inhibited” and the “glycosylated HbA1c levels” value (db/db mouse; obese mice, 1.0 mg/kg oral daily, 7 weeks, FIG. 18) was “significantly inhibited”. For the same compound, the “pro-inflammatory cytokine TNF alpha” value (db/db mouse; obese mice, 1.0 mg/kg oral daily, 7 weeks, FIG. 19) was “significantly reduced”, the triglyceride levels (db/db mouse; obese mice, 1.0 mg/kg oral daily, 7 weeks, vs vehicle-treated controls, FIG. 20) was “significantly lower” and the “methacholine-induced increase in Penh values” ([3]; 10 mg/kg IT qd) was “significant inhibition”. For the same compound, the “monocytes in BALF” value ([3]; 10 mg/kg SC) was “reduced”, the “methacholine-induced increase in Penh values” ([3]; 0.1, 1, and 10 mg/kg bid s.c.) was “significant inhibition” and the airway hyper-responsiveness ([3]; 0.1, 1 and 10 mg/kg bid s.c. and 10 mg/kg i.t., multiple administrations) was “significant protection against airway hyper-responsiveness”. For the same compound, the “total WBC and eosinophils in BALF” value ([3]; 0.1 and 1 mg/kg SC) was “significantly reduced”, the “lymphocytes in BALF” value ([3]; 0.1 and 1 mg/kg SC as well as 10 mg/kg IT) was “reduced” and the “eosinophils and white blood cells in BALF” value ([3]; multiple administrations, lacks a consistent dose-response relationship) was “significant reduction”.
